The NIST ThermoML archive (doi:10.1007/s10765-010-0766-0)

Assay: molar heat capacity at constant volume; wn = mass fraction of the nth substance listed
Conditions: Liquid, Vacuum adiabatic calorimetry, w2 = 0.4981

FC(F)C(F)(F)F [pentafluoroethane] + FCF
Conditions	molar heat capacity at constant volume [J/K/mol]
332.15 K, 7002 kPa	71.46
333.15 K, 7333 kPa	71.39
333.15 K, 7355 kPa	71.82
333.15 K, 7370 kPa	69.13
334.15 K, 7700 kPa	71.17
334.15 K, 7723 kPa	71.02
334.15 K, 7736 kPa	71.24
335.15 K, 8069 kPa	71.02
335.15 K, 8090 kPa	72.62
335.15 K, 8104 kPa	70.51
336.15 K, 8438 kPa	70.73
336.15 K, 8457 kPa	69.5
336.15 K, 8472 kPa	70.88
337.15 K, 8807 kPa	71.02
337.15 K, 8826 kPa	71.53
337.15 K, 8840 kPa	69.42
338.15 K, 9176 kPa	71.02
338.15 K, 9194 kPa	71.39
338.15 K, 9209 kPa	69.42
339.15 K, 9546 kPa	70.66
339.15 K, 9563 kPa	71.39
339.15 K, 9579 kPa	69.57
340.15 K, 9916 kPa	70.3
340.15 K, 9933 kPa	70.37
340.15 K, 9949 kPa	68.91
341.15 K, 10286 kPa	70.44
341.15 K, 10302 kPa	70.95
341.15 K, 10320 kPa	70.15
342.15 K, 10657 kPa	69.79
342.15 K, 10672 kPa	70.59
342.15 K, 10691 kPa	68.55
343.15 K, 11028 kPa	70.15
343.15 K, 11043 kPa	71.46
343.15 K, 11061 kPa	70.08
344.15 K, 11399 kPa	70.08
344.15 K, 11413 kPa	70.59
344.15 K, 11431 kPa	68.99
345.15 K, 6187 kPa	86.29
345.15 K, 11770 kPa	69.79
345.15 K, 11784 kPa	71.39
345.15 K, 11802 kPa	69.35
346.15 K, 6420 kPa	87.01
346.15 K, 12143 kPa	70.3
346.15 K, 12155 kPa	70.37
346.15 K, 12174 kPa	68.62
347.15 K, 6655 kPa	85.49
347.15 K, 6657 kPa	86.07
347.15 K, 12515 kPa	70.44
347.15 K, 12527 kPa	72.33
347.15 K, 12547 kPa	69.35
348.15 K, 6890 kPa	85.63
348.15 K, 6893 kPa	86.51
348.15 K, 12887 kPa	69.06
348.15 K, 12899 kPa	70.15
348.15 K, 12919 kPa	68.84
349.15 K, 7127 kPa	83.74
349.15 K, 7130 kPa	86.51
349.15 K, 13259 kPa	69.86
349.15 K, 13271 kPa	70.95
349.15 K, 13292 kPa	69.42
350.15 K, 7364 kPa	85.2
350.15 K, 7368 kPa	84.47
350.15 K, 13631 kPa	69.42
350.15 K, 13643 kPa	70.15
350.15 K, 13664 kPa	69.28
351.15 K, 7602 kPa	84.11
351.15 K, 7606 kPa	85.42
351.15 K, 14004 kPa	70.08
351.15 K, 14015 kPa	70.73
351.15 K, 14036 kPa	68.48
352.15 K, 7841 kPa	83.23
352.15 K, 7845 kPa	84.11
352.15 K, 14377 kPa	69.06
352.15 K, 14387 kPa	70.22
352.15 K, 14409 kPa	68.84
353.15 K, 8080 kPa	82.36
353.15 K, 8084 kPa	83.16
353.15 K, 14750 kPa	70.08
353.15 K, 14761 kPa	71.46
353.15 K, 14783 kPa	68.41
354.15 K, 8320 kPa	83.38
354.15 K, 8324 kPa	83.89
354.15 K, 15123 kPa	69.5
354.15 K, 15133 kPa	70.59
354.15 K, 15157 kPa	68.48
355.15 K, 8560 kPa	82.73
355.15 K, 8565 kPa	84.62
355.15 K, 15496 kPa	69.64
355.15 K, 15507 kPa	70.59
355.15 K, 15531 kPa	69.64
356.15 K, 8801 kPa	83.45
356.15 K, 8806 kPa	82.87
356.15 K, 15869 kPa	70.59
356.15 K, 15880 kPa	69.93
356.15 K, 15904 kPa	68.99
